The source of these data is patent US20210122730A1, “GLUCOCORTICOID RECEPTOR MODULATORS” (ORIC Pharmaceuticals, Inc., priority 2017, published 2021).

One series addresses T1, CYP2C8 (Homo sapiens, UniProt P10632).
T1 construct: Pooled human microsomes were obtained from Sekisui XenoTech, KS; tissue Sekisui XenoTech, KS; host or cells: pooled human liver microsomes
T1 sequence (P10632 1-490): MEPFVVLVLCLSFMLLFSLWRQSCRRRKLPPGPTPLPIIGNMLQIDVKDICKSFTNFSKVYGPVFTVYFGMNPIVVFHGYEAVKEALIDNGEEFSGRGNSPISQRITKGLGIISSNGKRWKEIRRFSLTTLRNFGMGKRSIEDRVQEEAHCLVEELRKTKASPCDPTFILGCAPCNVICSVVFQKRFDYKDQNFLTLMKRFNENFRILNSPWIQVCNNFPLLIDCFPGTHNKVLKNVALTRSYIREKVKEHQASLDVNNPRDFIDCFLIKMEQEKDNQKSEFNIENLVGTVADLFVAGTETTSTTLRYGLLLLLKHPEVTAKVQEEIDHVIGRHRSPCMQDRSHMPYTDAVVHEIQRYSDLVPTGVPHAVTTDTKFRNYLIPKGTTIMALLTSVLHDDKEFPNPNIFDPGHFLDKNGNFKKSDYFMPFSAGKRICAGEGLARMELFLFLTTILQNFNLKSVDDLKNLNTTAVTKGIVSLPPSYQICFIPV
Kind of series: CYP Inhibition Assay (CYP2C8, human liver microsomes, paclitaxel substrate). Format: in vitro ADME. The following applies: pH 7.4; pooled human liver microsomes 0.1 mg/mL, probe substrate paclitaxel. The method, boiled down: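 CYP2C8 activity read as 6α-hydroxypaclitaxel formation by LC-MS/MS, with % inhibition versus vehicle control. Reactions ran 5 min at 37° C, pH 7.4 phosphate buffer, 0.1 mg/mL pooled human liver microsomes, 1 mM NADPH, duplicate wells.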
A general note: Liver microsomes are vesicles of endoplasmic reticulum, rich in cytochrome P450 enzymes.

Another series addresses T2, GR (Homo sapiens, UniProt P04150).
T2 construct: expressed in transfected cells; host or cells: CHO-K1
T2 sequence (P04150 1-777): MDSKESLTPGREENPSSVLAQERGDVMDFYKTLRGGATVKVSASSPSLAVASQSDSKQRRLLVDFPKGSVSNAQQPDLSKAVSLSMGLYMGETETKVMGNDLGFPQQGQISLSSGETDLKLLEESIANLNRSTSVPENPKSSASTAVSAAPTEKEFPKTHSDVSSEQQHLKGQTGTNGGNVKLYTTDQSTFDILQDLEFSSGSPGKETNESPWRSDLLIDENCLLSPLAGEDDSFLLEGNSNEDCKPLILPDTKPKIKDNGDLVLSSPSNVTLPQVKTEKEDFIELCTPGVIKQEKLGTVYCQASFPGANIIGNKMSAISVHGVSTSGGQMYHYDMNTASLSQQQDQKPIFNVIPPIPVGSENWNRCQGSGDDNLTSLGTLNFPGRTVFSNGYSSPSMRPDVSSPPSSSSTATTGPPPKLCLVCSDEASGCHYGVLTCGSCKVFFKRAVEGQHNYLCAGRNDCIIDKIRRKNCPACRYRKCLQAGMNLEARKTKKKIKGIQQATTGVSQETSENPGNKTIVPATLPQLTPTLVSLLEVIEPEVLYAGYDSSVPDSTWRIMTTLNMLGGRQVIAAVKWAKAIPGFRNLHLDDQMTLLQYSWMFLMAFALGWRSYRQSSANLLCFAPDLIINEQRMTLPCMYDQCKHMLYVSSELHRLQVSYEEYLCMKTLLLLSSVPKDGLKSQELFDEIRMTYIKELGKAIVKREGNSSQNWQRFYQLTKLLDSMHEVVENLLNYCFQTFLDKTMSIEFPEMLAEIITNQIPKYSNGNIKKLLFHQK
The series can be described thus: In Vitro GR Luciferase Reporter Assay (antagonist mode, CHO-K1-GR-MMTV-Luc reporter cells). The format is cell-based. To be noted: antagonist mode, 10 nM Dexamethasone. The method, boiled down:
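Antagonist mode: compounds (8 serial 1:5 dilutions) added to GR-MMTV-luciferase CHO-K1 reporter cells co-exposed to 10 nM dexamethasone final, in phenol red-free DMEM plus 10% CSS. After roughly 18-24 h at 37° C, OneGlo luminescence read and IC50 calculated.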
For orientation: A reporter such as luciferase makes a cellular process visible.

By inhibition is commonly meant the change of the read-out against control, counted positive when it falls. A lower inhibition goes with a weak effect. As a reminder, the pIC50 is the IC50 on a negative log10 scale, so that one unit is a factor of ten.

pIC50: −log10 of the molar value.

On CYP2C8, `O=C(c1cc(C(F)(F)F)ccn1)[C@]12Cc3cnn(-c4ccc(F)cc4)c3C=C1CC[C@H](N(CC(F)F)S(=O)(=O)c1ccc(Cl)nc1)C2` [Example 341, 6-chloro-N-(2,2-difluoroethyl)-N-((4aS,6S)-1-(4-fluorophenyl)-4a-(4-(trifluoromethyl)picolinoyl)-4,4a,5,6,7,8-hexahydro-1H-benzo[f]indazol-6-yl)pyridine-3-sulfonamide] showed an inhibition at 5 min of 25 to 50%. The pIC50 at GR is at least 7.00.

At CYP2C8, `CO[C@]1(C)C[C@H](N([C@H]2CCC3=Cc4c(cnn4-c4ccc(F)cc4)C[C@]3(C(=O)c3ncc(C(F)(F)F)s3)C2)S(=O)(=O)c2ccn(C)n2)C1` [Example 342, N-((4aS,6S)-1-(4-fluorophenyl)-4a-(5-(trifluoromethyl)thiazole-2-carbonyl)-4,4a,5,6,7,8-hexahydro-1H-benzo[f]indazol-6-yl)-N-((1s,3R)-3-methoxy-3-methylcyclobutyl)-1-methyl-1H-pyrazole-3-sulfonamide] returned an inhibition at 5 min of 25 to 50%. This compound also had a pIC50 against GR of at least 7.00.

Regarding `C[C@]1(O)C[C@@H](N([C@H]2CCC3=Cc4c(cnn4-c4ccc(F)cc4)C[C@]3(C(=O)c3cc(Cl)ccn3)C2)S(=O)(=O)c2ccc(F)cc2)C1` [Example 344, N-((4aS,6S)-4a-(4-chloropicolinoyl)-1-(4-fluorophenyl)-4,4a,5,6,7,8-hexahydro-1H-benzo[f]indazol-6-yl)-4-fluoro-N-((1s,3R)-3-hydroxy-3-methylcyclobutyl)benzenesulfon-amide], the inhibition at 5 min against CYP2C8 was in the range of 25 to 50%. This compound also showed a negative logarithm of the IC50 (pIC50) against GR of at least 7.00.

Compound `O=C(c1cc(F)ccn1)[C@]12Cc3cnn(-c4ccc(F)cc4)c3C=C1CC[C@H](N(C1CC(F)(F)C1)S(=O)(=O)c1ccc(Cl)nc1)C2` [Example 346, 6-chloro-N-(3,3-difluorocyclobutyl)-N-((4aS,6S)-1-(4-fluorophenyl)-4a-(4-fluoropicolinoyl)-4,4a,5,6,7,8-hexahydro-1H-benzo[f]indazol-6-yl)pyridine-3-sulfonamide] had an inhibition at 5 min against CYP2C8 of 25 to 50%. Also, the pIC50 on GR is at least 7.00.

Turning to `Cn1cnc(S(=O)(=O)N(C2CC2)[C@H]2CCC3=Cc4c(cnn4-c4ccc(F)cc4)C[C@]3(C(=O)c3cc(F)ccn3)C2)n1` [Example 347, N-cyclopropyl-N-((4aS,6S)-1-(4-fluorophenyl)-4a-(4-fluoropicolinoyl)-4,4a,5,6,7,8-hexahydro-1H-benzo[f]indazol-6-yl)-1-methyl-1H-1,2,4-triazole-3-sulfonamide], at CYP2C8, the inhibition at 5 min was in the range of 25 to 50%. Further, the pIC50 against GR was at least 7.00.

On to `Cn1cnc(S(=O)(=O)N(C2CC2)[C@H]2CCC3=Cc4c(cnn4-c4ccc(F)cc4)C[C@]3(C(=O)c3cc(Cl)ccn3)C2)n1` [Example 348, N-((4aS,6S)-4a-(4-chloropicolinoyl)-1-(4-fluorophenyl)-4,4a,5,6,7,8-hexahydro-1H-benzo[f]indazol-6-yl)-N-cyclopropyl-1-methyl-1H-1,2,4-triazole-3-sulfonamide], for which, on CYP2C8, the inhibition at 5 min lay within 25 to 50%. The compound further had a pIC50 on GR of at least 7.00.

Compound `Cn1ccc(S(=O)(=O)N(C2CC(F)(F)C2)[C@H]2CCC3=Cc4c(cnn4-c4ccc(F)cc4)C[C@]3(C(=O)c3cc(Cl)ccn3)C2)n1` [Example 349, N-((4aS,6S)-4a-(4-chloropicolinoyl)-1-(4-fluorophenyl)-4,4a,5,6,7,8-hexahydro-1H-benzo[f]indazol-6-yl)-N-(3,3-difluorocyclobutyl)-1-methyl-1H-pyrazole-3-sulfonamide] displayed an inhibition at 5 min on CYP2C8 of 25 to 50%. This compound also gave a pIC50 against GR of at least 7.00.

`Cn1cc(S(=O)(=O)N(CC(F)F)[C@H]2CCC3=Cc4c(cnn4-c4ccc(F)cc4)C[C@]3(C(=O)c3ncc(C(F)(F)F)s3)C2)nn1` [Example 350, N-(2,2-difluoroethyl)-N-((4aS,6S)-1-(4-fluorophenyl)-4a-(5-(trifluoromethyl)thiazole-2-carbonyl)-4,4a,5,6,7,8-hexahydro-1H-benzo[f]indazol-6-yl)-1-methyl-1H-1,2,3-triazole-4-sulfonamide] returned an inhibition at 5 min at CYP2C8 of 25 to 50%. The compound also gave a pIC50 against GR of at least 7.00.
